According to US10689343B2, “Inhibitors of tryptophan 2,3-dioxygenase” (NETHERLANDS TRANSLATIONAL RESEARCH CENTER B.V., priority 2016, dated 2020):
“And” between values parts separate entries of the source, which are not always exact repeats. Identical values can stand only once.

Legend:
Recombinant TDO = biological target: T1, Recombinant TDO (Homo sapiens, UniProt P48775); assay: Biochemical assay for TDO (NFK GreenScreen); details: 50 nM TDO, 200 μM L-tryptophan
T1 construct: Recombinant TDO (Seegers, N., et al.) and all other assay components were diluted in TDO reaction buffer
T1 sequence (P48775 whole entry): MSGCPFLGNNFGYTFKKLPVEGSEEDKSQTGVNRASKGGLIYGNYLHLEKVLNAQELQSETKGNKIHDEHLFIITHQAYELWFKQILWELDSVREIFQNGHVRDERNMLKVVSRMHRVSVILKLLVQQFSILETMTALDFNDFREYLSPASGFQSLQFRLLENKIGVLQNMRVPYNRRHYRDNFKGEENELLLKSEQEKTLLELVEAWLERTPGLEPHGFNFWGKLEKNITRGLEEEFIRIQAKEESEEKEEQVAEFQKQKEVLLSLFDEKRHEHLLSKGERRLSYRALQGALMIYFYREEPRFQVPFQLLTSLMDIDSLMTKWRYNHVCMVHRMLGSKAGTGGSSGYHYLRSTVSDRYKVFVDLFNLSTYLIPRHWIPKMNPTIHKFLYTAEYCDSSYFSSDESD
Method: Biochemical Assay for TDO
The NFK GreenScreen™ assay technology was also used to determine the inhibitory activity of compounds on TDO (Seegers, N., et al., J. Biol. Screen. 19: 1266; 2014). Compounds were serially diluted in DMSO and finally in TDO reaction buffer, consisting of 100 mM NaH2PO4, pH 7.0, supplemented with 0.02% Tween-20 (cat. No. P7949; Sigma Aldrich). Recombinant TDO (Seegers, N., et al.) and all other assay components were diluted in TDO reaction buffer. 10 μl of compound solution and 20 μl of enzyme solution supplemented with 200 μM ascorbic acid were combined in the well of a black 384-well plate (cat. no. 3573; Corning, Corning, N.Y., USA), and incubated for 60 min at room temperature. Subsequently, 10 μl of 0.8 mM of the substrate L-tryptophan was added, i.e., the final concentration of L-tryptophan was 200 μM. The DMSO concentration in the assay was 0.3%. The concentration of TDO was 50 nM. Incubation was continued for 15 min at room temperature. Then, 10 μl of NFK Green™ (NTRC, Oss, The Netherlands) was added, the plate was sealed, and the reaction was developed for 3 hours at 37° C. To determine the production of N-formyl kynurenine (NFK), the seal was removed and fluorescence was read on an EnVision multimode reader (Perkin Elmer, Waltham, Mass., USA). IC50 were calculated using XLfit™ software (ID Business Solutions, Ltd., Surrey, U.K.).

[1] = biological target: T2, TDO in SW48 colorectal carcinoma cells (Homo sapiens, UniProt P48775); assay: Cell-based assay for TDO in SW48 colorectal carcinoma cells (NFK GreenScreen); details: 18 hours with L-tryptophan, read-out: IC50 on TDO in cells
T2 construct: Endogenous expression of TDO has been determined in a variety of cancer cell lines; host or cells: SW48 colorectal carcinoma cells
T2 sequence (P48775 whole entry): as above
Method: The biological activity of TDO inhibitors can be measured by applying above detection methods to cells that are treated with test compound. Endogenous expression of TDO has been determined in a variety of cancer cell lines (Pilotte et al.; Seegers, et al.), or TDO can be expressed in cells that lack endogenous TDO by transfection of an expression vector containing TDO cDNA. […] A preferred assay is the cell-based NFK GreenScreen™ assay (Seegers et al, supra), which measures the cellular inhibitory activity of compounds on TDO. […] No. V9920). Cell-Based Assay for TDO The NFK GreenScreen™ assay technology was also used to determine the inhibitory activity of compounds on TDO in SW48 colorectal carcinoma cells (Seegers, N., et al., J. Biol. Screen. 19: 1266; 2014). […] Compounds were dissolved in DMSO and diluted in RPMI 1640. Final DMSO concentration in the assay was 0.4% (v/v). Eight thousand cells per well in 40 μl were seeded in a black 384-well tissue plate (cat. No. 781086; […] To determine NFK levels, 12 μl NFK Green™ (NTRC, Oss, The Netherlands) was added to each well, and the plate was sealed and incubated for 4 hours at 37° C. Fluorescence was measured on an EnVision multimode reader (Perkin Elmer, Waltham, Mass., USA).

CYP2D6 = CYP2D6 (Homo sapiens, UniProt P10635); assay: P450-Glo CYP2D6 Luc-IP assay
CYP2D6, sequence (P10635 whole entry): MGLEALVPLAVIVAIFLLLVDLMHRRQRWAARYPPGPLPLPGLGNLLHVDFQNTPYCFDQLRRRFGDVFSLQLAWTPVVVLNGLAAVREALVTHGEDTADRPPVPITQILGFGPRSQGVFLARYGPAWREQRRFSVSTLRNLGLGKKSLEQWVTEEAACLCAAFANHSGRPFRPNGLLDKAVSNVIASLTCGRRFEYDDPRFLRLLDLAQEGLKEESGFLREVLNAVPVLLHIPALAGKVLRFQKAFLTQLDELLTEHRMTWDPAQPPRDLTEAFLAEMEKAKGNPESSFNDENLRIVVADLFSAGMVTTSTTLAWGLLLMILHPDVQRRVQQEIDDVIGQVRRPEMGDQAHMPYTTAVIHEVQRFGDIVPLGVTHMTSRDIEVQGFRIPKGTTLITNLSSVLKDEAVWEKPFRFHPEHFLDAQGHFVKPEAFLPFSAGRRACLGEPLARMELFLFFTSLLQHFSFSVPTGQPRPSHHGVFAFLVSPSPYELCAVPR

CYP3A4 = CYP3A4 (Homo sapiens, UniProt P08684); assay: P450-Glo CYP3A4 luciferin isopropylacetal (Luc-IP) assay
CYP3A4, sequence (P08684 whole entry): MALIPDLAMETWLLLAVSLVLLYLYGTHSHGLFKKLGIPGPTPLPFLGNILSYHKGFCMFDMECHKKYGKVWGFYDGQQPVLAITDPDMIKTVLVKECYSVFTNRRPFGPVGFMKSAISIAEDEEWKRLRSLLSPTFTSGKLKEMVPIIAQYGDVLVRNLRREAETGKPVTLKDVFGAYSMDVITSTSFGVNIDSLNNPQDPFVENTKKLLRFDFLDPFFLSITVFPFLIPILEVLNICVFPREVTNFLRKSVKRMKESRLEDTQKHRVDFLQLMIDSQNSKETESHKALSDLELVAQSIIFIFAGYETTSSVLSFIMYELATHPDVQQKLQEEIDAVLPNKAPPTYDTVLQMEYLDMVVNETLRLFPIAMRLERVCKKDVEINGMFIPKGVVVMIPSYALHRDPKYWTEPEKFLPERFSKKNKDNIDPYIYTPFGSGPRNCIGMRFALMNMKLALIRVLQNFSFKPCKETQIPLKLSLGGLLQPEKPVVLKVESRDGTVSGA

SMILES | IC50 (Recombinant TDO) [µM] | IC50 [1] | IC50 (CYP2D6) [µM] | IC50 (CYP3A4) [µM]
O=C(NCCN1C[C@@H](O)[C@H](O)C1)c1ccc(-c2c[nH]c3cc(F)ccc23)cc1Cl [Example 116, 2-Chloro-N-[2-[(3R,4R)-3,4-dihydroxypyrrolidin-1-yl]ethyl]-4-(6-fluoro-1H-indol-3-yl)benzamide] | < 1 | ≤ 0.5 µM and 0.2 to 0.5 µM | > 10 | > 10
COC(=O)C(NC(=O)c1ccc(-c2c[nH]c3cc(F)ccc23)cc1)C1CCNCC1 (centres unmarked) [Example 122, Methyl 2-[[4-(6-fluoro-1H-indol-3-yl)benzoyl]amino]-2-(4-piperidyl)acetate] | < 1 | ≤ 0.5 µM and 0.2 to 0.5 µM | > 10 | 5 to 10
Cn1cc(CCC(=O)Nc2ccc(-c3c[nH]c4cc(F)ccc34)cc2)cn1 [Example 107, N-[4-(6-fluoro-1H-indol-3-yl)phenyl]-3-(1-methylpyrazol-4-yl)propanamide] |  | ≤ 0.5 µM and 0.2 to 0.5 µM | > 10 | > 10
O=C(NCC1CC(F)(F)C1)c1ccc(-c2c[nH]c3cc(F)ccc23)cc1 [Example 9, N-[(3,3-difluorocyclobutyl)methyl]-4-(6-fluoro-1H-indol-3-yl)benzamide] | < 1 |  | > 10 | > 10
C[C@H](CO)NC(=O)c1ccc(-c2c[nH]c3ccc(F)cc23)cc1 [Example 37, 4-(5-Fluoro-1H-indol-3-yl)-N-[(1R)-2-hydroxy-1-methyl-ethyl]benzamide] | < 1 |  | > 10 | > 10
CC(C)NC(=S)N1CCC[C@@H](CNC(=O)c2ccc(-c3c[nH]c4cc(F)ccc34)cc2)C1 [Example 92, 4-(6-Fluoro-1H-indol-3-yl)-N-[[(3S)-1-(isopropylcarbamothioyl)-3-piperidyl]methyl]benzamide] | 1 to 5 |  | > 10 | > 10
O=C(NCC1(O)CCCCC1)c1ccc(-c2c[nH]c3cc(F)ccc23)cc1 [Example 89, 4-(6-Fluoro-1H-indol-3-yl)-N-[(1-hydroxycyclohexyl)methyl]benzamide] | 1 to 5 |  | > 10 | > 10
O=C(CC1COC1)Nc1ccc(-c2c[nH]c3cc(F)ccc23)cc1 [Example 30, N-[4-(6-fluoro-1H-indol-3-yl)phenyl]-2-(oxetan-3-yl)acetamide] | < 1 |  | > 10 | > 10
O=C(N[C@H]1CCCNC1)c1ccc(-c2c[nH]c3ccc(F)cc23)cc1 [Example 41, 4-(5-Fluoro-1H-indol-3-yl)-N-[(3S)-3-piperidyl]benzamide] | < 1 |  | > 10 | > 10
COCC(C)C(=O)Nc1ccc(-c2c[nH]c3cc(F)ccc23)cc1 (centres unmarked) [Example 33, N-[4-(6-fluoro-1H-indol-3-yl)phenyl]-3-methoxy-2-methyl-propanamide] | < 1 |  | > 10 | > 10
O=C(NOC[C@H](O)CO)c1ccc(-c2c[nH]c3cc(F)ccc23)cc1 [Example 67, N-[(2R)-2,3-dihydroxypropoxy]-4-(6-fluoro-1H-indol-3-yl)benzamide] | < 1 |  | > 10 | 5 to 10
O=C(NOC(CO)CO)c1ccc(-c2c[nH]c3cc(F)ccc23)cc1 [Example 65, 4-(6-Fluoro-1H-indol-3-yl)-N-[2-hydroxy-1-(hydroxymethyl)ethoxy]benzamide] | < 1 |  | > 10 | 5 to 10
CNC(=O)Nc1ccc(-c2c[nH]c3cc(F)ccc23)cc1 [Example 5, 1-[4-(6-Fluoro-1H-indol-3-yl)phenyl]-3-methyl-urea] | < 1 |  | > 10 | > 10
Cc1cc(C(=O)N[C@@H](C)CO)ccc1-c1c[nH]c2cc(F)ccc12 [Example 126, 4-(6-Fluoro-1H-indol-3-yl)-N-[(1S)-2-hydroxy-1-methyl-ethyl]-3-methyl-benzamide] | 1 to 5 |  | 5 to 10 | 5 to 10
C[C@@H](CO)NC(=O)c1ccc(-c2c[nH]c3ccc(F)cc23)cc1 [Example 40, 4-(5-Fluoro-1H-indol-3-yl)-N-[(1S)-2-hydroxy-1-methyl-ethyl]benzamide] | < 1 |  | > 10 | > 10
CC(C)(O)CC(=O)Nc1ccc(-c2c[nH]c3cc(F)ccc23)cc1 [Example 35, N-[4-(6-fluoro-1H-indol-3-yl)phenyl]-3-hydroxy-3-methyl-butanamide] | < 1 |  | > 10 | > 10

Other lines, results leading:

IC50 (Recombinant TDO) [µM] | IC50 [1] | IC50 (CYP2D6) [µM] | IC50 (CYP3A4) [µM] | SMILES
< 1 | ≤ 0.5 µM and 0.2 to 0.5 µM | 5 to 10 | > 10 | O=C(NCCO)c1ccc(-c2c[nH]c3cc(F)ccc23)cc1 [Example 10, 4-(6-Fluoro-1H-indol-3-yl)-N-(2-hydroxyethyl)benzamide]
< 1 | ≤ 0.5 µM and 0.2 to 0.5 µM | > 10 | 5 to 10 | N[C@H]1CC[C@@H](C(=O)Nc2ccc(-c3c[nH]c4cc(F)ccc34)cc2)C1 [Example 106, (1R,3S)-3-amino-N-[4-(6-fluoro-1H-indol-3-yl)phenyl]cyclopentanecarboxamide]
< 1 | ≤ 0.5 µM and 0.2 to 0.5 µM | > 10 | > 10 | C[C@H](CO)NC(=O)c1c(F)cc(-c2c[nH]c3cc(F)ccc23)cc1F [Example 56, 2,6-Difluoro-4-(6-fluoro-1H-indol-3-yl)-N-[(1R)-2-hydroxy-1-methyl-ethyl]benzamide]
< 1 |  | > 10 | > 10 | CCNCC(=O)Nc1ccc(-c2c[nH]c3cc(F)ccc23)cc1 [Example 29, 2-(Ethylamino)-N-[4-(6-fluoro-1H-indol-3-yl)phenyl]acetamide]
< 1 |  | > 10 | > 10 | CCCC(C)NC(=O)c1ccc(-c2c[nH]c3cc(F)ccc23)cc1 (centres unmarked) [Example 22, 4-(6-Fluoro-1H-indol-3-yl)-N-(1-methylbutyl)benzamide]
 | ≤ 0.5 µM and 0.2 to 0.5 µM | > 10 | > 10 | CS(=O)(=O)N1CCCC(NC(=O)c2ccc(-c3c[nH]c4cc(F)ccc34)cc2)C1 (centres unmarked) [Example 120, 4-(6-Fluoro-1H-indol-3-yl)-N-(1-methylsulfonyl-3-piperidyl)benzamide]
1 to 5 |  | > 10 | > 10 | O=C(CC1CC1)Nc1ccc(-c2c[nH]c3cc(F)ccc23)cc1 [Example 28, 2-Cyclopropyl-N-[4-(6-fluoro-1H-indol-3-yl)phenyl]acetamide]
< 1 |  | > 10 | > 10 | N#CCC(=O)Nc1ccc(-c2c[nH]c3cc(F)ccc23)cc1 [Example 32, 2-Cyano-N-[4-(6-fluoro-1H-indol-3-yl)phenyl]acetamide]
< 1 |  | > 10 | > 10 | COC(=O)CNC(=O)c1ccc(-c2c[nH]c3cc(F)ccc23)cc1 [Example 138, Methyl 2-[[4-(6-fluoro-1H-indol-3-yl)benzoyl]amino]acetate]
< 1 |  | > 10 | > 10 | C[C@H](O)CC(=O)Nc1ccc(-c2c[nH]c3cc(F)ccc23)cc1 [Example 34, (3S)—N-[4-(6-fluoro-1H-indol-3-yl)phenyl]-3-hydroxy-butanamide]
< 1 |  | > 10 | 5 to 10 | O=C(NC[C@H]1CCNC1)c1ccc(-c2c[nH]c3cc(F)ccc23)cc1 [Example 91, 4-(6-Fluoro-1H-indol-3-yl)-N-[[(3S)-pyrrolidin-3-yl]methyl]benzamide]
< 1 |  | > 10 | 5 to 10 | Cc1cc(C(=O)N[C@H]2CCCNC2)ccc1-c1c[nH]c2cc(F)ccc12 [Example 130, 4-(6-Fluoro-1H-indol-3-yl)-3-methyl-N-[(3S)-3-piperidyl]benzamide]
